In patent publication US6492378B1, “Substituted isoquinoline derivatives and their use as anticonvulsivants” (SmithKline Beecham p.l.c., priority 1998, dated 2002):

system: maximal electroshock seizure (MEST) threshold in rodents; test: MEST test (maximal electroshock seizure threshold); format: in vivo; details: 2 mg/kg p.o. at 2 h post-dose
Protocol: 2. MEST Test The maximal electroshock seizure (MEST) threshold test in rodents is particularly sensitive for detecting potential anticonvulsant properties^1. In this model, anticonvulsant agents elevate the threshold to electrically-induced seizures whilst proconvulsants lower the seizure threshold. Method for Mouse Model Mice (naive male, Charles River, U.K. CD-1 strain, 25-30 g) are randomly assigned to groups of 10-20 and dosed orally or intraperitoneally at a dose volume of 10 ml/kg with various doses of compound (0.3-300 mg/kg) or vehicle. Mice are then subjected at 30 or 60 min post dose to a single electroshock (0.1 sec, 50 Hz, sine wave form) administered via corneal electrodes. The mean current and standard error required to induce a tonic seizure in 50% (CC50) of the mice in a particular treatment group is determined by the ‘up and down’ method of Dixon and Mood (1948)^2. Statistical comparisons between vehicle- and drug-treated groups are made using the method of Litchfield and Wilcoxon (1949)^3. In control animals the CC50 is usually 14-18 mA. […] If a tonic convulsion does occur, then the current is decreased, and so on until all the animals in the group have been tested. Studies are carried out using a Hugo Sachs Electronik Constant Current Shock Generator with totally variable control of shock level from 0 to 300 mA and steps of 2 mA are usually used. Method for Rat Model The threshold for maximal (tonic hindlimb extension) electroshock seizures in male rats (Sprague Dawley, 80-150 g, 6 weeks old) was determined by a Hugo Sachs Electronik stimulator which delivered a constant current (0.3 sec duration; from 1-300 mA in steps of 5-20 mA). The procedure is similar to that outlined above for mouse and full details are as published by Upton et al,.^4 The percentage increase or decrease in CC50 for each group compared to the control is calculated. Drugs are suspended in 1% methyl cellulose.

SMILES | % increases in seizure threshold
COc1ccc(C(=O)Nc2ccc3c(c2)CN(C)CC3(C)C)cc1Br [Example E15, N-(2,4,4-Trimethyl-1,2,3,4-tetrahydroisoquinolin-7-yl)-3-bromo-4-methoxybenzamide] | 263%
COc1ccc(C(=O)Nc2ccc3c(c2)CN(C)CC3(C)C)cc1I [Example E17, N-(2,4,4-Trimethyl-1,2,3,4-tetrahydroisoquinolin-7-yl)-3-iodo-4-methoxybenzamide] | 314%
COc1cc(OC(C)C)c(Cl)cc1C(=O)Nc1cccc2c1C(C)(C)CN(C)C2 [Example E29, N-(2,4,4-Trimethyl-1,2,3,4-tetrahydroisoquinolin-5-yl)-5-chloro-2-methoxy-4-iso-propyloxybenzamide] | 310%
COc1cc(C(C)C)c(C(F)(F)F)cc1C(=O)Nc1cccc2c1C(C)(C)CN(C)C2 [Example E34, N-(2,4,4-Trimethyl-1,2,3,4-tetrahydroisoquinolin-5-yl)-2-methoxy-4-iso-propyl-5-trifluoromethylbenzamide] | 280%
CCc1c(NC(=O)c2ccc(OC(C)C)c(C(C)=O)c2)ccc2c1CN(C)CC2(C)C [Example E48, N-(8-Ethyl-2,4,4-trimethyl-1,2,3,4-tetrahydroisoquinolin-7-yl)-3-acetyl-4-iso-propyloxybenzamide] | 240%
COc1ccc(C(=O)Nc2ccc3c(c2)CN(C)C(C)(C)C3)cc1C(F)(F)F [Example E69, N-(2,3,3-Trimethyl-1,2,3,4-tetrahydroisoquinolin-7-yl)4-methoxy-3-trifluoromethylbenzamide] | 340%
